Usually IC50 stands for the concentration at which inhibition is half-maximal.

The results in this text go back to patent US20260365672A1, “K-RAS MUTANT PROTEIN INHIBITORS” (Jacobio Pharmaceuticals Co., Ltd., priority 2022, published 2026).

For this assay, the target named is T1, GDP-KRAS G12V (Homo sapiens, UniProt P01116, G12V).
T1 construct: GDP-loaded HIS-KRAS(G12V, aa 1-169)
T1 sequence (P01116 1-169 isoform P01116-2 G12V): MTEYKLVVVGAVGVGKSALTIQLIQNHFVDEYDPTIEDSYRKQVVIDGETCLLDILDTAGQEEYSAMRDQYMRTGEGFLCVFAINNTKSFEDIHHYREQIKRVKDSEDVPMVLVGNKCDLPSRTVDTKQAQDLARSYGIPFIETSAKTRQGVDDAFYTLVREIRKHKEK
The assay is described as follows: SOS1 catalyzed nucleotide exchange assay (TR-FRET). It is filed as biochemical. The conditions noted are these: GDP-loaded HIS-KRAS(G12V, aa 1-169) 10-15 nM; 0.5 μM SOS1 ExD; 80 nM BODIPY FL GTP; 15 min pre-incubation, 4 hours at 25 °C. The method, then: GDP-loaded HIS-KRAS(G12V, aa 1-169) was pre-incubated with a compound in the presence of 10 nM GDP in a 384-well plate (Greiner) for 15 min, then purified SOS1 ExD (Flag tag, aa 564-1049), BODIPY™ FL GTP (Invitrogen) and MAb (monoclonal antibody) Anti 6HIS-Tb cryptate Gold (Cisbio) were added to the assay wells (Final concentration: 10-15 nM GDP-loaded HIS-KRAS(G12V), 5 nM GDP, 0.5 μM SOS1 ExD, 80 nM BODIPY™ FL GTP, 52.5 ng/mL MAb Anti 6HIS-Tb cryptate Gold) and incubated for 4 hours at 25 °C. Wells containing same percent of DMSO served as vehicle control, and wells without KRAS served as low control. TR-FRET signals were read on Tecan Spark multimode microplate reader. The parameters were F486: Excitation 340 nm, Emission 486 nm, Lag time 100 μs, Integration time 200 μs; F520: Excitation 340 nm, Emission 520 nm, Lag time 100 μs, Integration time 200 μs. TR-FRET ratios for each individual wells were calculated by equation: TR-FRET ratio=(Signal F520/Signal F486)*10000. The percent of activation of compounds treated wells were normalized between vehicle control and low control (% Activation=(TR-FRET ratioCompound treated−TR-FRET ratioLow control)/(TR-FRET ratioVehicle control−TR-FRET ratioLow control)*100%). Then the data were analyzed either by fitting a 4-parameter logistic model or by Excel to calculate IC50 values.
The compound `C#Cc1c(F)ccc2cc(O)cc(-c3nc4c5c(nc(OC[C@@]67CCCN6C[C@H](F)C7)nc5c3F)N(C)C3COCC3N4C)c12` (mixture of isomers) [Compound 3] gave an IC50 of 0.757 nM.

In turn, `C#Cc1c(F)ccc2cc(N)cc(-c3nc4c5c(nc(OCC67CCCN6CC(F)C7)nc5c3F)N(C)C3COCC3N4C)c12` (centres unmarked) [Compound 5] came in with an IC50 of 5.58 nM. This IC50 lies about 7.4-fold higher than the previous one. With `C#Cc1c(F)ccc2cc(O)cc(-c3nc4c5c(nc(OCC67CCCN6CC(F)C7)nc5c3F)N(C)C3CCCC3N4C)c12` (centres unmarked) [Compound 1] the figure was 4.38 nM; with `C#Cc1c(F)ccc2cc(O)cc(-c3nc4c5c(nc(OC[C@@]67CCCN6C[C@H](F)C7)nc5c3F)N(C)C3CC3N4C)c12` (mixture of isomers) [Compound 2], 26.4 nM; with `C#Cc1c(F)ccc2cc(O)cc(-c3nc4c5c(nc(OC[C@@]67CCCN6C[C@H](F)C7)nc5c3F)N(C)[C@H]3COC[C@H]3N4)c12` [Compound 4], 1.35 nM.
